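96-well plates; 48 h exposure; 5 concentrations. Endpoints by linear interpolation between flanking doses. Not reached: highest tested concentration assigned. GI50 = concentration required for 50% inhibition of growth. TGI: total growth inhibition.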
Experiments:
Test in all cases: DTP human tumour cell line panel, 48 h
[1] = tested on: RPMI-8226 leukemia
[2] = tested on: CAKI-1 renal
[3] = tested on: A549 NSCLC
[4] = tested on: SK-OV-3 ovarian
[5] = tested on: SF-539 CNS
[6] = tested on: SF-295 CNS
[7] = tested on: HCT-15 colon
[8] = tested on: HOP-92 NSCLC
[9] = tested on: HT29 colon
[10] = tested on: COLO 205 colon

Row | Structure (SMILES) | GI50 [1] | TGI [1] | GI50 [2] | TGI [2] | GI50 [3] | TGI [3] | GI50 [4] | TGI [4] | GI50 [5] | TGI [5] | GI50 [6] | TGI [6] | GI50 [7] | TGI [7] | GI50 [8] | TGI [8] | GI50 [9] | TGI [9] | GI50 [10] | TGI [10]
1 | Nc1nccc(C#Cc2cncnc2Nc2ccc(OCc3cccc(F)c3)c(Cl)c2)n1 | 5.62 µM | 16.9 µM | 5.37 µM | 11 µM | 5.99 µM | > 15.6 µM | 7.22 µM | > 22.5 µM | 5.58 µM | 14.1 µM | 11.7 µM | > 25 µM | 3.69 µM | 11.4 µM | 3.73 µM | 8.95 µM | 4.57 µM | 9.05 µM | 3.96 µM | 8.6 µM
2 | CC1(C)CC[C@]2(C(=O)O)CCC3(C)C(=CCC4[C@@]5(C)CC[C@H](OC6OCC(O)C(O)C6OC6OC(CO)C(O)C(O)C6O)C(C)(C)C5CC[C@]43C)C2C1 (some centres undefined) | – | 6.71 µM | – | 3.06 µM | – | 3.53 µM | – | 4.25 µM | – | 4.31 µM | – | 3.42 µM | – | 4.38 µM | – | 3.69 µM | – | 5.23 µM | – | 3.49 µM
3 | C[CH2][Sn]([CH2]C)([O]C(=O)c1cc(OC)c(OC)c(OC)c1)[O][Sn]([CH2]C)([CH2]C)[O]C(=O)c1cc(OC)c(OC)c(OC)c1 | 28.7 µM | > 100 µM | 15.7 µM | 29.8 µM | > 100 µM | > 100 µM | > 100 µM | > 100 µM | 27.7 µM | 74.9 µM | 76.5 µM | > 100 µM | 43 µM | > 79 µM | 19.6 µM | 36.9 µM | 48.1 µM | > 100 µM | 20.3 µM | 43.6 µM
4 | O=C1c2cccnc2-c2nc(-c3ccccc3)cc3c2c1nc1ccccc13 | 0.21 µM | – | 6.67 µM | 17.5 µM | 6.97 µM | 21 µM | 9.58 µM | 25.2 µM | 17.8 µM | 43.3 µM | 11.4 µM | 25.3 µM | 1.13 µM | 5.02 µM | 20.3 µM | 80.4 µM | 2.59 µM | 7.16 µM | 6 µM | 19 µM
5 | CC1(C)CCC(CN2CCN(c3ccc(C(=O)NS(=O)(=O)c4ccc(NCC5CCOCC5)c([N+](=O)[O-])c4)c(Oc4cnc5[nH]ccc5c4)c3)CC2)=C(c2ccc(Cl)cc2)C1 | 1.78 µM | 5.54 µM | 2.91 µM | 10.7 µM | 2.4 µM | 11.8 µM | 3.16 µM | 10.9 µM | 2.41 µM | 5.62 µM | 2.35 µM | 7.42 µM | 3.1 µM | 11.2 µM | 1.29 µM | 2.77 µM | 2.49 µM | 6.45 µM | 1.95 µM | 3.7 µM
6 | CN(C)c1ccc(N=C(C#N)c2nc(N)nc(N3CCOCC3)n2)cc1 | 74.3 µM | > 100 µM | 39.9 µM | > 100 µM | 38.8 µM | > 100 µM | 66.2 µM | > 100 µM | 21.4 µM | 46.1 µM | 15.9 µM | 31.3 µM | 52.9 µM | > 100 µM | 28.3 µM | > 100 µM | 67.5 µM | > 100 µM | > 100 µM | > 100 µM
7 | CC(=O)C(CN1CCOCC1)C(c1ccccc1)c1c(O)c2ccccc2oc1=O (centres undefined) | – | 96.4 µM | – | > 100 µM | – | > 100 µM | – | > 100 µM | – | > 100 µM | – | > 100 µM | – | > 100 µM | – | > 100 µM | – | > 100 µM | – | > 100 µM
8 | c1ccc(COc2ccc(Nc3ncnc4ccc(-c5ccco5)cc34)cc2)cc1 | 5.5 µM | 20.2 µM | 2.19 µM | > 25 µM | 6.83 µM | > 25 µM | 0.994 µM | 8.16 µM | 8.83 µM | > 25 µM | 8.62 µM | > 25 µM | 4.3 µM | 12.3 µM | 0.379 µM | 7.21 µM | 4.52 µM | 16.1 µM | 7.14 µM | 17.7 µM
9 | COc1ccc(C2=NN(c3ccc(S(N)(=O)=O)cc3)C(c3ccc(Cl)cc3)C2)c(O)c1 (centres undefined) | 1.84 µM | 6.71 µM | 2.67 µM | 8.64 µM | 3.38 µM | 35.1 µM | 8.23 µM | 56 µM | 10.1 µM | 22.3 µM | 3.1 µM | 14.5 µM | 2.98 µM | 13.9 µM | 2.97 µM | 15.6 µM | 2.83 µM | 8.68 µM | 3.59 µM | 13.3 µM
10 | Cc1cc(N(CCC#N)CCC#N)ccc1N=Nc1ccc([N+](=O)[O-])cc1 | – | > 100 µM | – | > 100 µM | – | > 100 µM | – | > 10 µM | – | > 100 µM | – | > 100 µM | – | > 100 µM | – | > 100 µM | – | > 100 µM | – | > 100 µM
